Assay results as given in US20260234099A1, “Endocannabinoid ligands and related analogs” (Northeastern University, priority 2023, published 2026).
Like-named read-outs stand apart in the source and are kept apart here.

Legend:
[1] = molecular target: CB1 receptor (rCB1) (Rattus norvegicus, UniProt P20272); experiment: cAMP assay (inhibition of FSK stimulated cAMP), CB1; type: cell-based; settings: for functional profile at CB1 (cAMP): full or partial agonist; for Emax: percentage of maximum response of standard full agonist (e.g., CP-55,940)
Sequence of CB1 receptor (rCB1) (P20272 whole entry): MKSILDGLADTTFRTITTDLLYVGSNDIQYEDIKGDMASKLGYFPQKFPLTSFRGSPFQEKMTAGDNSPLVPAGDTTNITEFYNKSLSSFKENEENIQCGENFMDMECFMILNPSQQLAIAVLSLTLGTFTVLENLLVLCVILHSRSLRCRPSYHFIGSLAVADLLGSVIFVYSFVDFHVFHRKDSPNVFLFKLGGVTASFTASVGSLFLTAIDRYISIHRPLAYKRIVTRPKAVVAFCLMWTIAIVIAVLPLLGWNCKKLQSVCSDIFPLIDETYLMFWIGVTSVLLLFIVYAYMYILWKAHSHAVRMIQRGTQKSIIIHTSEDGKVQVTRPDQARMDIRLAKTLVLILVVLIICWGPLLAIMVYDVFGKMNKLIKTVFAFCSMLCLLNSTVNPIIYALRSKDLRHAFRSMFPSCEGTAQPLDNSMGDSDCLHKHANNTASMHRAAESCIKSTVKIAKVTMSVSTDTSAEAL
Procedure: Further functional characterization of some of the disclosed compounds tested initially for “binding affinity” or for GTPγ-S binding was performed by using the cyclic adenosine monophosphate (cAMP) assay. […] A detailed description of the methods used to test compounds using the cAMP assay is given in Yingpeng, et al. J. Med. Chem. (2018) 61, 8639-8657 the content of which is hereby incorporated by reference. The EC50 values (potency of a test compound) of the functional assays may or may not be accompanied by the E(max) value in tables 1-5 (efficacy of the test compound). E(max)/efficacy is the maximum GTP stimulation or cAMP inhibition levels and is presented as the percentage of maximum response evoked by a standard CB1/CB2 full agonist (e.g., CP-55,940) for reference see the paper cited above.

[2] = molecular target: CB2 receptor (hCB2) (Homo sapiens, UniProt P34972); experiment: cAMP assay (inhibition of FSK stimulated cAMP), CB2; type: cell-based; settings: class symbols
Sequence of CB2 receptor (hCB2) (P34972 whole entry): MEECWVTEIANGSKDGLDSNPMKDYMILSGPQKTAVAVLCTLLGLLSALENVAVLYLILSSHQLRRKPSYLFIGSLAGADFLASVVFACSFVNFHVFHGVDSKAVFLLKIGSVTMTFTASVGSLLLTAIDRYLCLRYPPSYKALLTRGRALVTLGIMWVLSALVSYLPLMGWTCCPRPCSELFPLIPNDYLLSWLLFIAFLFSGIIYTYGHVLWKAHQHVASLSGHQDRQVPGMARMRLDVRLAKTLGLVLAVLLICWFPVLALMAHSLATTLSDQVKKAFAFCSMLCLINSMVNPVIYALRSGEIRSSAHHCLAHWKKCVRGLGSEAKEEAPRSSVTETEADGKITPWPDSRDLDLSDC
Procedure: FIG. 2A is a graph providing data of the % inhibition of FSK stimulated cAMP for compound 6.1.1 for hCB2.
Further functional characterization of some of the disclosed compounds tested initially for “binding affinity” or for GTPγ-S binding was performed by using the cyclic adenosine monophosphate (cAMP) assay. Key compounds initially characterized functionally using the GTPγ-S assay were also doubly tested using the cAMP assay to unambiguously confirm their functional profiles. The functional potency of the compounds tested using the cyclase assay is also represented by the EC50 (cAMP) value and similarly the lower the EC50 (cAMP) value the higher the potency of the compound for the receptor. A detailed description of the methods used to test compounds using the cAMP assay is given in Yingpeng, et al. J. Med. Chem. (2018) 61, 8639-8657 the content of which is hereby incorporated by reference. The EC50 values (potency of a test compound) of the functional assays may or may not be accompanied by the E(max) value in tables 1-5 (efficacy of the test compound). E(max)/efficacy is the maximum GTP stimulation or cAMP inhibition levels and is presented as the percentage of maximum response evoked by a standard CB1/CB2 full agonist (e.g., CP-55,940) for reference see the paper cited above. If a test compound has an efficacy close to 100% of the standard full agonist, then the test compound is also classified as full agonist.

[3] = molecular target: CB1 receptor (Rattus norvegicus, UniProt P20272); experiment: CB1 receptor binding affinity (Ki); settings: for CB1 over CB2 preference: CB1 vs CB2, Tables 1 and 5; for binding affinity for CB1 receptor compared to endogenous AEA: vs AEA, Table 5
Sequence of CB1 receptor (P20272 whole entry): as the sequence (P20272 whole entry) above
Procedure: (§1) Some disclosed compounds were tested for CB1 and CB2 receptor binding affinity (Tables 1, 2, 3, 4, 5). As used herein “binding affinity” is represented by the Ki value. The Ki value is the affinity constant and describes the affinity of the compound for the receptor. […] A detailed description of the methods used to test “binding affinity” of compounds is given in Makriyannis, et al., US 2007/0135388 the content of which is hereby incorporated by reference.

[4] = molecular target: CB2 receptor (Homo sapiens, UniProt P34972); experiment: CB2 receptor binding affinity (Ki); set-up: CB2 receptor Ki; CB2 receptor Ki (PMSF); other: with PMSF; settings: read-out: CB2 receptor Ki
Procedure: as §1

[5] = with PMSF, read-out: CB1 Receptor Ki with PMSF
[6] = without PMSF, read-out: CB1 receptor affinity Ki

Compound | EC50 ([1]; class symbols) [nM] | EC50 [2] [nM] | Ki [3, 5] [nM] | further results
C[C@H](/C=C\C/C=C\C/C=C\C1CC1C(=O)OC(CO)CO)/C=C\CCCCC(F)(F)F (single isomer, unassigned) [Compound 5.11.4] | 10 to 200 | 10 to 200 | – | –
C[C@H](/C=C\C/C=C\C/C=C\C1CC1C(=O)OC(CO)CO)/C=C\CCCCC(F)(F)F (single isomer, unassigned) [Compound 5.11.8] | 0.01 to 10 | 10 to 200 | – | –
C[C@H](/C=C\C/C=C\C/C=C\CCCC(=O)N[C@H](C)CO)/C=C\CCCCCOC1CCCCO1 (stereo partly shown) [Compound 4.1.3] | – | – | > 1000 | Ki [3, 6]: > 1000 nM; Ki [4]: > 1000 nM
C[C@H](/C=C\C/C=C\C/C=C\CCCC(=O)N[C@H](C)CO)/C=C\CCCCCBr [Compound 4.1.4, (S,5Z,8Z,11Z,14Z)-20-Bromo-N—((R)-1-hydroxypropan-2-yl)-13-methylicosa-5,8,11,14-tetraenamide] | – | – | 0.01 to 10 | Ki [3, 6]: 0.01 to 10 nM; Ki [4]: 0.01 to 10 nM
C[C@H](/C=C\C/C=C\C/C=C\CCCC(=O)N[C@H](C)CO)/C=C\CCCCCO[N+](=O)[O-] [Compound 4.1.5b, (S,6Z,9Z,12Z,15Z)-20-(((R)-1-Hydroxypropan-2-yl)amino)-8-methyl-20-oxoicosa-6,9,12,15-tetraen-1-yl Nitrate] | – | – | 0.01 to 10 | CB1 over CB2 preference [3]: bind to and stimulate preferentially the CB1 receptors; Ki [3, 6]: 0.01 to 10 nM; Ki [4]: 10 to 200 nM
CCCCC/C=C\C/C=C\C/C=C\C/C=C\C1CC1C(=O)NCCO (stereo not shown) [Compound 4.2.2a, 2-((1Z,4Z,7Z,10Z)-Hexadeca-1,4,7,10-tetraen-1-yl)-N-(2-hydroxyethyl)cyclopropane-1-carboxamide] | – | – | – | Ki [3, 6]: > 1000 nM; Ki [4]: > 1000 nM
CCCCC/C=C\C/C=C\C/C=C\C/C=C\C1CC(C(=O)NCCO)C1 (stereo not shown) [Compound 4.2.2c] | – | – | 200 to 1000 | Ki [4]: 200 to 1000 nM
CCCCC/C=C\C/C=C\C/C=C\C/C=C\C1(CC(=O)NCCO)CCC1 [Compound 4.2.2d] | – | – | 200 to 1000 | –
CCCCC/C=C\C/C=C\C/C=C\C/C=C\C1CC[C@@H](C(=O)NCCO)C1 (stereo partly shown) [Compound 4.2.2e] | – | – | 200 to 1000 | Ki [4]: 200 to 1000 nM
CCCCC/C=C\C/C=C\C/C=C\C/C=C\C1CCC(C(=O)NCCO)CC1 (stereo not shown) [Compound 4.2.2f] | – | – | 200 to 1000 | Ki [4]: 200 to 1000 nM
CCCCC/C=C\C/C=C\C/C=C\Cc1ccccc1CCCC(=O)NCCO [Compound 4.3.4, N-(2-Hydroxyethyl)-4-(2-((2Z,5Z,8Z)-tetradeca-2,5,8-trien-1-yl)phenyl)butanamide] | – | – | 10 to 200 | binding affinity for CB1 receptor compared to endogenous AEA [3]: substantially higher binding affinities; Ki [3, 6]: 10 to 200 nM; Ki [4]: 10 to 200 nM
CCCCC/C=C\C/C=C\C/C=C\Cc1ccccc1CCCC(=O)N[C@H](C)CO [Compound 4.3.5, N—((R)-1-Hydroxypropan-2-yl)-4-(2-((2Z,5Z,8Z)-tetradeca-2,5,8-trien-1-yl)phenyl)butanamide] | – | – | 10 to 200 | CB1 over CB2 preference [3]: bind to and stimulate preferentially the CB1 receptors; binding affinity for CB1 receptor compared to endogenous AEA [3]: substantially higher binding affinities; Ki [3, 6]: 0.01 to 10 nM; Ki [4]: 10 to 200 nM
CCCCC/C=C\[C@H](C)/C=C\C/C=C\Cc1ccccc1CCCC(=O)N[C@H](C)CO [Compound 4.5.3, N—((R)-1-hydroxypropan-2-yl)-4-(2-((S,2Z,5Z,8Z)-7-methyltetradeca-2,5,8-trien-1-yl)phenyl)butanamide] | – | – | 0.01 to 10 | binding affinity for CB1 receptor compared to endogenous AEA [3]: substantially higher binding affinities; Ki [3, 6]: 0.01 to 10 nM
C[C@H](/C=C\C/C=C\C/C=C\CCCC(=O)NC(CO)CO)/C=C\CCCCCO[N+](=O)[O-] [Compound 5.1.6b] | 0.01 to 10 | 10 to 200 | – | –
C[C@H](/C=C\C/C=C\C/C=C\CCCC(=O)NC(CO)CO)/C=C\CCCCCOC1CCCCO1 (stereo partly shown) [Compound 5.1.6c] | > 1000 | > 1000 | – | –
CCCCC/C=C\C/C=C\C/C=C\C/C=C\C1CC1C(=O)OC(CO)CO (stereo not shown) [Compound 5.2.2a, 1,3-Dihydroxypropan-2-yl 2-((1Z,4Z,7Z,10Z)-hexadeca-1,4,7,10-tetraen-1-yl)cyclopropane-1-carboxylate] | 10 to 200 | – | – | –

Compound | EC50 ([1]; class symbols) [nM] | EC50 [2] [nM] | Ki [3, 5] [nM] | further results
CCCCC/C=C\C/C=C\C/C=C\C/C=C\C1CC1C(=O)OC(CO)CO (stereo not shown) [Compound 5.2.2b] | – | 10 to 200 | – | –
CCCCC/C=C\C/C=C\C/C=C\C/C=C\C1CC(C(=O)OC(CO)CO)C1 (stereo not shown) [Compound 5.2.2c] | > 1000 | > 1000 | – | –
CCCCC/C=C\C/C=C\C/C=C\C/C=C\C1(CC(=O)OC(CO)CO)CCC1 [Compound 5.2.2d] | 200 to 1000 | > 1000 | – | –
CCCCC/C=C\C/C=C\C/C=C\C/C=C\C1CCC(C(=O)OC(CO)CO)CC1 (stereo not shown) [Compound 5.2.2f] | > 1000 | > 1000 | – | –
CCCCC/C=C\[C@H](C)/C=C\C/C=C\C/C=C\CCCC(=O)OC(CO)CO [Compound 5.4.3c, 1,3-Dihydroxypropan-2-yl (S,5Z,8Z,11Z,14Z)-13-methylicosa-5,8,11,14-tetraenoate] | – | 0.01 to 10 | – | functional profile at CB1 (cAMP) [1]: full agonist; EC50 ([1]; numeric): 10.3 nM; Emax [1]: 99%
CCCCC/C=C\[C@@H](C)/C=C\C/C=C\C/C=C\CCCC(=O)OC(CO)CO [Compound 5.4.3d, 1,3-Dihydroxypropan-2-yl (R,5Z,8Z,11Z,14Z)-13-methylicosa-5,8,11,14-tetraenoate] | – | 0.01 to 10 | – | functional profile at CB1 (cAMP) [1]: full agonist; EC50 ([1]; numeric): 4.1 nM; Emax [1]: 95%
C[C@H](/C=C\C/C=C\C/C=C\C1CC1C(=O)OC(CO)CO)/C=C\CCCCCO[N+](=O)[O-] (stereo partly drawn) [Compound 5.7.3b, 1,3-dihydroxypropan-2-yl-2-((S,1Z,4Z,7Z,10Z)-9-methyl-16-(nitrooxy)hexadeca-1,4,7,10-tetraen-1-yl)cyclopropane-1-carboxylate] | 0.01 to 10 | – | – | –
N#CCCCCC/C=C\C/C=C\C/C=C\C/C=C\C1CC1C(=O)OC(CO)CO (stereo not shown) [Compound 5.8.3a, 1,3-Dihydroxypropan-2-yl-2-((1Z,4Z,7Z,10Z)-16-cyanohexadeca-1,4,7,10-tetraen-1-yl)cyclopropane-1-carboxylate] | 10 to 200 | – | – | –
O=C(OC(CO)CO)C1CC1/C=C\C/C=C\C/C=C\C/C=C\CCCCCO[N+](=O)[O-] (stereo not shown) [Compound 5.8.3b, 1,3-Dihydroxypropan-2-yl-2-((1Z,4Z,7Z,10Z)-16-(nitrooxy)hexadeca-1,4,7,10-tetraen-1-yl)cyclopropane-1-carboxylate] | 10 to 200 | – | – | –
CCCCC/C=C\[C@H](C)/C=C\C/C=C\Cc1ccccc1CCCC(=O)OC(CO)CO [Compound 5.9.3] | > 1000 | > 1000 | – | –
C[C@H](/C=C\C/C=C\C/C=C\[C@@H]1C[C@H]1C(=O)OC(CO)CO)/C=C\CCCCC(F)(F)F [Compound 5.12.1] | 10 to 200 | 10 to 200 | – | –
C[C@H](/C=C\C/C=C\C/C=C\[C@H]1C[C@@H]1C(=O)OC(CO)CO)/C=C\CCCCC(F)(F)F [Compound 5.12.2] | > 1000 | 10 to 200 | – | –
C[C@H](/C=C\C/C=C\C/C=C\[C@H]1C[C@H]1C(=O)OC(CO)CO)/C=C\CCCCC(F)(F)F [Compound 5.12.3, 1,3-dihydroxypropan-2-yl (1R,2R)-2-((S,1Z,4Z,7Z,10Z)-16,16,16-trifluoro-9-methylhexadeca-1,4,7,10-tetraen-1-yl)cyclopropane-1-carboxylate] | 0.01 to 10 | 10 to 200 | – | –
C[C@H](/C=C\C/C=C\C/C=C\[C@@H]1C[C@@H]1C(=O)OC(CO)CO)/C=C\CCCCC(F)(F)F [Compound 5.12.4, 1,3-dihydroxypropan-2-yl (1S,2S)-2-((S,1Z,4Z,7Z,10Z)-16,16,16-trifluoro-9-methylhexadeca-1,4,7,10-tetraen-1-yl)cyclopropane-1-carboxylate] | 10 to 200 | 10 to 200 | – | –
CCCCC/C=C\[C@H](C)/C=C\C/C=C\C/C=C\CCCOC(=O)C(C)(CO)CO [Compound 6.2.2, (S,4Z,7Z,10Z,13Z)-12-Methylnonadeca-4,7,10,13-tetraen-1-yl-3-hydroxy-2(hydroxymethyl)-2-methylpropanoate] | 10 to 200 | 10 to 200 | – | –
